From US8173384B2, “Methods for analyzing or processing a heparin sample” (Massachusetts Institute of Technology, priority 2000, dated 2012)
Where two headings read alike, the source gives them in different places.

How the values were obtained:
[1] = tested on: factor Xa (FXa); experiment: Anti-Xa assay (factor Xa generation inhibition; factor Xa from serum or purified); type: biochemical
Protocol: (§1) Biological Measurements of Decasaccharide Activity. In vitro anticoagulant activity was determined as described previously (Hoppensteadt, D. A., Jeske, W. P., Walenga, J. M., Fu, K., Yang, L. H., Ing, T. S., Herbert, J. M. & Fareed, J. (1999) Thromb Res 96, 115-24 and Dietrich, C. P., Paiva, J. F., Castro, R. A., Chavante, S. F., Jeske, W., Fareed, J., Gorin, P. A., Mendes, A. & Nader, H. B. (1999) Biochim Biophys Acta 1428, 273-83), according to the United States Pharmacopoeia. Thrombin (FIIa) and factor Xa (FXa) generation inhibition assays were completed essentially as described. Briefly, either AT-10 decasaccharide, Enoxaparin LMWH or the synthetic AT-III binding pentasaccharide (Penta 1) used in this study was dissolved in sterile saline at the designated concentrations. To this sample was added an equal volume of fibrinogen deficient plasma diluted 1:8 in 100 mM Tris-HCl (pH 8.5). In a separate sample, the same concentration of heparin oligosaccharide and actin was added in a 1:1 ratio to either Spectrozyme TH or FXa. In this manner, the intrinsic IIa and Xa generation was measured. In addition, to account for inhibition of thrombin and extrinsic generation of FXa, thromboplastin C was diluted 1:6 with either Spectrozyme TH or FXa. For all samples, the optical density was measured at 405 nm and results are expressed as a % inhibition compared to a unsupplemented saline control. […]

[2] = tested on: whole blood; experiment: HepTest
Protocol: Whole blood data were also used to determine the anticoagulant activity of AT-10. The assays, activated partial thromboplastin time (APTT) and prothrombin time (PT) was conducted in a manner similar to what has been previously reported (Dietrich, C. P., Paiva, J. F., Castro, R. A., Chavante, S. F., Jeske, W., Fareed, J., Gorin, P. A., Mendes, A. & Nader, H. B. (1999) Biochim Biophys Acta 1428, 273-83). APTT reagent was obtained from Organon Teknika (Durham, N.C.) and HepTest Reagent was obtained from Haemachem (St. Louis, Mo.).

[3] = target: T1, heparinase III (Pedobacter heparinus, UniProt Q59289); experiment: Exhaustive heparinase III digestion, products by MALDI-MS; type: biochemical, Flavobacterium heparinum
T1 construct: made in house
Protocol: (§2) Digests. Heparinase I digests were completed as described (Venkataraman, G., Shriver, Z., Raman, R. & Sasisekharan, R. (1999) Science 286, 537-42 and Rhomberg, A. J., Ernst, S., Sasisekharan, R. & Biemann, K. (1998) Proc Natl Acad Sci USA 95, 4176-81). Heparinase II or III reactions were completed in essentially the same way at room temperature in 10 μM ovalbumin, 1 μM dextran sulfate, and 10 mM ethylenediamine, pH 7.0. Short digestions were completed with 50 nM enzyme for 10 minutes while exhaustive digests were completed with 200 nM enzyme overnight. Mass spectra were collected using parameters as outlined above (see also Shriver, Z., Raman, R., Venkataraman, G., Drummond, K., Turnbull, J., Toida, T., Linhardt, R., Biemann, K. & Sasisekharan, R. (2000) Proc Natl Acad Sci USA, 2000 Sep. 12; 97(19):10359-64) and calibrated externally by using signals for protonated (RG)19R and its complex with a nitrous acid-derived hexasaccharide of the sequence I2SHNS,6S I2SHNS,6S I2SMan6S
(§3) Enzymatic Action of the Heparinases Towards the AT-III Binding Site: Previously, we investigated the substrate specificity of heparinases I and II towards AT-10 (Rhomberg, A. J., Shriver, Z., Biemann, K. & Sasisekharan, R. (1998) Proc Natl Acad Sci USA 95, 12232-7 and Ernst, S., Rhomberg, A. J., Biemann, K. & Sasisekharan, R. (1998) Proc Natl Acad Sci USA 95, 4182-7). These studies, however, were carried out assuming a published structure (Toida, T., Hileman, R. E., Smith, A. E., Vlahova, P. I. & Linhardt, R. J. (1996) J Biol Chem 271, 32040-7). In light of the newly determined structure of AT-10 described herein (see also Shriver, Z., Raman, R., Venkataraman, G., Drummond, K., Turnbull, J., Toida, T., Linhardt, R., Biemann, K. & Sasisekharan, R. (2000) Proc Natl Acad Sci USA, 2000 Sep. 12; 97(19):10359-64), we reexamined the enzymatic action of heparinases I, II, and III towards oligosaccharides containing a 3-O sulfate that is critical for high affinity AT-III binding. For these studies, we used three oligosaccharides, two pentasaccharides (Penta 1 and Penta 2, FIG. 5) and a hexasaccharide (Hexa 1, FIG. 5). […]
(§4) Compositional Analysis: UFH was subjected to exhaustive depolymerization with an enzyme cocktail made up of Heparinase I, Heparinase II, and Heparinase III. […] The samples were analyzed by CE in reverse polarity with a running buffer of 50 mM tris/phosphate, 10 μM dextran sulfate, pH 2.5. […] Each sample was digested in duplicate and the experiment was repeated twice for each sample, resulting in four readings per sample. All of the 8 resulting peaks were collected, and the purity of the collected samples was checked by re-injecting into CE, and their mass was measured by offline MALDI Mass Spectrometry. […]

[4] = target: T2, heparinase II (Pedobacter heparinus, UniProt C6XZB6); experiment: Exhaustive heparinase II digestion, products by MALDI-MS; type: biochemical, Flavobacterium heparinum
T2 construct: made in house
Protocol: as §2, §3, §4

[5] = target: T3, Thrombin (FIIa) (Homo sapiens, UniProt P00734); experiment: Anti-IIa assay (thrombin generation inhibition); type: biochemical
T3 construct: purchased Ortho Diagnostic Systems, Inc. (Raritan, N.J.) Fibrindex
Protocol: as §1

[6] = target: T4, heparinase I (Pedobacter heparinus, UniProt Q05819); experiment: Exhaustive heparinase I digestion, products by MALDI-MS; type: biochemical, Flavobacterium heparinum
T4 construct: made in house
Protocol: as §2, §3, §4

[7] = target: T5, human AT-III (Homo sapiens, UniProt P01008); settings: Desai et al. 1998; cited from earlier work
[8] = target: T5, human AT-III; experiment: Equilibrium fluorescence titration of AT-III with saccharide; type: binding
Protocol: Equilibrium Fluorescence Titration Experiments. Titrations of human AT-III with either AT-10 decasaccharide or heparin were completed at 25° C. using a Fluorolog 2 machine (Spex Instruments) (Meagher, J. L., Beechem, J. M., Olson, S. T. & Gettins, P. G. (1998) J Biol Chem 273, 23283-9 and Desai, U. R., Petitou, M., Bjork, I. & Olson, S. T. (1998) J Biol Chem 273, 7478-87). […] With the pH 7.4 buffer, sodium chloride was added to a final concentration of 100 mM.
Fluorescence emission spectra were collected from 300-400 nm with a 280 nm excitation wavelength and a 5 s integration time. Briefly, the titration experiments were conducted as follows—aliquots of either decasaccharide or heparin was added to a 1 μm solution of AT-III, the solution was allowed to come to equilibrium for one minute, and an emission spectrum collected. Addition of sequential saccharide aliquots and fluorescence signal was adjusted to account for protein dilution.

T1 sequence (Q59289 25-659): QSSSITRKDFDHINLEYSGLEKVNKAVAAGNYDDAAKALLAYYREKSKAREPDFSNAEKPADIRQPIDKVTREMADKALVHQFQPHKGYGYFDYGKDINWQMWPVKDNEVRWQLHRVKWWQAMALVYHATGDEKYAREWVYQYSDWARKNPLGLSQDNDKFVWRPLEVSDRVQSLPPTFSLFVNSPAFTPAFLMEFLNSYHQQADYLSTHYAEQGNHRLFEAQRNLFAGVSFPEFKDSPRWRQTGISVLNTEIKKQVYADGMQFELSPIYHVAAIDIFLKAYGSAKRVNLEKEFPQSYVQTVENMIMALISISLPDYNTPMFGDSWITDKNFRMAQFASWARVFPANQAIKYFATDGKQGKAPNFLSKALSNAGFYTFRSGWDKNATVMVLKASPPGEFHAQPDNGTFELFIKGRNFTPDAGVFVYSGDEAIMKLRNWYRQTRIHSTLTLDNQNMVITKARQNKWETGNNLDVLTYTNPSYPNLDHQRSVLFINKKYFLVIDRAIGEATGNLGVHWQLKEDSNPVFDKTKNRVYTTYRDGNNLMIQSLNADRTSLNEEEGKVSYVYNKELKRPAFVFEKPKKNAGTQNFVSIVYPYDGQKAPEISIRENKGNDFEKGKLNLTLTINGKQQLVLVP
T4 sequence (Q05819 22-384): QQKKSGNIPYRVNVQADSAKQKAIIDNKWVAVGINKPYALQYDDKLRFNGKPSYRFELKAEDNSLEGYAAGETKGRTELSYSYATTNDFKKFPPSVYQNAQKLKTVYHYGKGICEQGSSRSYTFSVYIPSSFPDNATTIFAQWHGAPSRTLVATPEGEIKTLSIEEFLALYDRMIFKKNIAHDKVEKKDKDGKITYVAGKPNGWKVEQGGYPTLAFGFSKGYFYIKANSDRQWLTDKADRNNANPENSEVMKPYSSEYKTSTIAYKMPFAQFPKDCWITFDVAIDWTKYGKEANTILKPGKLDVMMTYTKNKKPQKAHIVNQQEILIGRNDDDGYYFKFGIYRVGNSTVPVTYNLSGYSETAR
T2 sequence (C6XZB6 26-772): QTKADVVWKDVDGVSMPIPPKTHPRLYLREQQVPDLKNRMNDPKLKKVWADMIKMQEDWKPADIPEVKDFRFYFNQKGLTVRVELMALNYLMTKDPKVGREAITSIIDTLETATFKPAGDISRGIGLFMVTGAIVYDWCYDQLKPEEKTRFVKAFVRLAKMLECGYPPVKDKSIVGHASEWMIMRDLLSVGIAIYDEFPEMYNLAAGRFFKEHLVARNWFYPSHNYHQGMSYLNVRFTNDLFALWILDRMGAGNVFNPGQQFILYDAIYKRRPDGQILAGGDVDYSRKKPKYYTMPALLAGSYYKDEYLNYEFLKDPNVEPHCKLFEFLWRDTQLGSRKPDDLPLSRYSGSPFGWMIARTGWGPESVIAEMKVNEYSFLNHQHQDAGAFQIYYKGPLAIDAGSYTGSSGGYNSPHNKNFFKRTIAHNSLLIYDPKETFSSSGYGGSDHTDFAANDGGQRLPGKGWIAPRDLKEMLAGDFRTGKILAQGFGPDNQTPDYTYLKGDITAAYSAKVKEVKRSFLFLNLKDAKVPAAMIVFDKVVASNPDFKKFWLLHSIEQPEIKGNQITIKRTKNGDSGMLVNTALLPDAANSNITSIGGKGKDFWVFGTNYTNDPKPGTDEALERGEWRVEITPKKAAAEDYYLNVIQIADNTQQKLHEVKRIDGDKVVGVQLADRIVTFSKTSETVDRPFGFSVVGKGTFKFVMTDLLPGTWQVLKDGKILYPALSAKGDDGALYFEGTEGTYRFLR

Kd ([8]; pH 6.0 I=0.025, read-out: KD for AT-III) [nM] | Kd ([8]; pH 6.2, read-out: apparent KD for AT-III) [nM] | affinity for AT-III (in words) ([8]; pH 7.4, I=0.15) | Structure (SMILES) | IC50 [1] [nM] | HepTest activity (in words) [2] | cleavage by heparinase III [3] | cleavage by heparinase II [4] | anti-IIa activity (in words) [5] | cleavage by heparinase I [6] | affinity for AT-III, previous studies (in words) [7]
 |  |  | CO[C@H]1O[C@H](COS(=O)(=O)O)[C@@H](O[C@@H]2O[C@@H](C(=O)O)[C@@H](O[C@H]3O[C@H](COS(=O)(=O)O)[C@@H](O[C@@H]4O[C@H](C(=O)O)[C@@H](O[C@H]5O[C@H](COS(=O)(=O)O)[C@@H](O)[C@H](O)[C@H]5NS(=O)(=O)O)[C@H](O)[C@H]4O)[C@H](OS(=O)(=O)O)[C@H]3NS(=O)(=O)O)[C@H](O)[C@H]2OS(=O)(=O)O)[C@H](O)[C@H]1NS(=O)(=O)O [Penta 1, HNS,6SGHNS,3S,6SI2SHNS,6S,OMe] | 39 | significantly higher activity than the AT-10 decasaccharide | not cleavable | cleave | neither the decasaccharide nor the pentasaccharide have significant anti-IIa activity | cleave | affinity similar to that of full length heparin
800 | 800 | very little affinity | CC(=O)NC1C(OC2C(C(=O)O)OC(OC3C(COS(=O)(=O)O)OC(O)C(NS(=O)(=O)O)C3OS(=O)(=O)O)C(O)C2O)OC(COS(=O)(=O)O)C(OC2OC(C(=O)O)C(OC3OC(COS(=O)(=O)O)C(OC4OC(C(=O)O)C(OC5OC(COS(=O)(=O)O)C(OC6OC(C(=O)O)C(OC7OC(COS(=O)(=O)O)C(OC8OC(C(=O)O)=CC(O)C8OS(=O)(=O)O)C(O)C7NS(=O)(=O)O)C(O)C6OS(=O)(=O)O)C(O)C5NS(=O)(=O)O)C(O)C4OS(=O)(=O)O)C(O)C3NS(=O)(=O)O)C(O)C2O)C1O [AT-10, ΔU2SHNS,6SI2SHNS,6SI2SHNS,6SIHNAc,6SGHNS,3S,6S] | 280 |  |  |  | neither the decasaccharide nor the pentasaccharide have significant anti-IIa activity |  | 
 |  |  | CC(=O)NC1C(OC2C(C(=O)O)OC(OC3C(COS(=O)(=O)O)OC(O)C(NS(=O)(=O)O)C3OS(=O)(=O)O)C(O)C2O)OC(COS(=O)(=O)O)C(OC2OC(C(=O)O)C(OC3OC(COS(=O)(=O)O)C(OC4OC(C(=O)O)=CC(O)C4OS(=O)(=O)O)C(O)C3NS(=O)(=O)O)C(O)C2O)C1O [Hexa 1, ΔU2SHNS,6SIHNAc,6S, GHNS,3S,6S] |  |  | susceptible | susceptible |  | not cleaved | 
 |  |  | CC(=O)N[C@H]1[C@@H](O[C@H]2[C@H](O)[C@@H](O)[C@H](O[C@H]3[C@H](OS(=O)(=O)O)[C@@H](NS(=O)(=O)O)C(O)O[C@@H]3COS(=O)(=O)O)O[C@@H]2C(=O)O)O[C@H](COS(=O)(=O)O)[C@@H](O[C@@H]2OC(C(=O)O)=C[C@H](O)[C@H]2O)[C@@H]1O (stereo partly drawn) [ΔUHNAC,6SGHNS,3S,6S] |  |  | resistant to further degradation | resistant to further degradation |  | resistant to further degradation | 
 |  |  | CO[C@H]1O[C@H](COS(=O)(=O)O)[C@@H](O[C@@H]2O[C@@H](C(=O)O)[C@@H](O[C@H]3O[C@H](COS(=O)(=O)O)[C@@H](O[C@@H]4O[C@H](C(=O)O)[C@@H](O[C@H]5O[C@H](COS(=O)(=O)O)[C@@H](O)[C@H](O)[C@H]5NS(=O)(=O)O)[C@H](O)[C@H]4O)[C@H](O)[C@H]3NS(=O)(=O)O)[C@H](O)[C@H]2OS(=O)(=O)O)[C@H](O)[C@H]1NS(=O)(=O)O [Penta 2, HNS,6SGHNS,6SI2SHNS,6S,OMe] |  |  | efficiently cleave | efficiently cleave |  | efficiently cleave | 
